Laboratory results: patent US20130059855A1, “CRYSTAL OF DI(ARYLAMINO)ARYL COMPOUND” (ASTELLAS PHARMA INC., priority 2010, published 2013)
Converted amounts (≈) assume the structure as drawn.

How the values were obtained:
[1] = Solubility in 50% acetone aqueous solution; format: physicochemical
Protocol: (§1) The solubility of A02-type crystal, A03-type crystal and A04-type crystal was measured for 50% acetone aqueous solution. The solubility is lowest for A04-type crystal at all temperatures.

[2] = Assessment of filterability (constant pressure filtration test, Ruth plot); format: physicochemical; conditions: for Filtration Constant B / Cake Average Specific Resistance αm: crystallization slurry, applied pressure 100 kPa; for Filtration Constant B: from inclination of Ruth plot; for Cake Average Specific Resistance αm: constant pressure filtration
Text: Slurries of A02-type crystal prepared by a method similar to that of the Variation of Reference Example 2 and A04-type crystal prepared by a method similar to that of Example 2 were used to perform constant pressure filteration test, and the cake-average filteration specific resistance αm was obtained by constant pressure filteration formula of Ruth shown in formula (1) to assess filterability. Note that the slurry used in the present test is the crystallization slurry immediately before the crystals are collected by filtration in the preparation of the crystals.
The calculation of cake average specific resistance αm [m/kg] was performed by plotting (Ruth plot) μ [m^3/m^2] and Δθ/Δν [sec/m], obtaining the filtration constant B from the inclination of the obtained line, and inserting the parameters shown in the filtration condition row of Table 1 to formula (2).

[3] = Long term stability test (storage stability); format: physicochemical; conditions: powder X-ray diffraction, DSC, HPLC
Protocol: A04-type crystal samples were separately stored for 3 months under (1) 40° C./75% R.H., (2) 60° C./uncontrolled humidity, and (3) 25° C./uncontrolled humidity/D65 lamp (1000 lux) illumination (2 months under condition (3)), and the change in the crystal form of the samples before and after storage was measured by powder X-ray diffraction and DSC analysis and the change in the purity of the same was confirmed by HPLC measurement (using HPLC Condition 1 or HPLC Condition 2 shown below as the measurement conditions).

Hygroscopicity Test A = format: physicochemical; conditions: relative humidity of 93% (KNO3 saturated aqueous solution), 25° C., 7 days
Protocol: About 0.5 g of A04-type crystal was weighed into an (open) weighing bottle with a known mass to obtain a precise mass, then the weighing bottle was placed in a desiccator adjusted to a relative humidity of 93% by KNO3 saturated aqueous solution and stored at 25° C. for 7 days before measuring the change in mass.

[4] = Hygroscopicity Test B (water absorption/dehydration behavior); format: physicochemical; conditions: 25° C., humidity range of 5-95% R.H.
Protocol: The water absorption/dehydration behavior of A04-type crystal was assessed using water balance measuring apparatus SGA-X100 (VTI) under the following conditions. Temperature: 25° C., measurement range: 5-95% R.H., measurement interval: 5%.

[5] = Assessment of the stability level (solubility, transformation, DSC); format: physicochemical; conditions: all temperature range; A01- to A05-type crystals compared
Protocol: as §1
(§2) A05-type crystal was subjected to slurry agitation under room temperature and its solvent-mediated transformation was studied.
The schematic diagram showing the interrelation of the stability levels of the crystals based on the above result is presented as FIG. 4.

[6] = Study of solvent-mediated transformation; format: physicochemical; conditions: slurry agitation in methyl ethyl ketone under room temperature
Text: as §2

EML4-ALK fusion protein = conditions: reported in Patent Document 1 (WO 2009/008371); cited from earlier work
mutant EGFR protein = conditions: reported in Patent Document 1 (WO 2009/008371); cited from earlier work

Solubility ([1]; 25° C.) [mg/mL] | Solubility ([1]; 40° C.) [mg/mL] | Solubility ([1]; 55° C.) [mg/mL] | Filtration Constant B [2] | Cake Average Specific Resistance αm [2] | SMILES | other results
13.6 (≈ 23.4 mM) | 17.7 (≈ 30.5 mM) | 30.8 (≈ 53 mM) | 81406 | 1.31×10^11 m/kg | COc1cc(N2CCC(N3CCN(C)CC3)CC2)ccc1Nc1ncnc(Nc2ccccc2S(=O)(=O)C(C)C)n1 [A02-type crystal, N-{2-methoxy-4-[4-(4-methylpiperazin-1-yl)piperidin-1-yl]phenyl}-N′-[2-(propane-2-sulfonyl)phenyl]-1,3,5-triazine-2,4-diamine] | cake average specific resistance relative to A04-type crystal ([2]; ratio of A02-type crystal to A04-type crystal, filtration time proportional): about 155 times
5.3 (≈ 9.13 mM) | 8.5 (≈ 14.6 mM) | 16.1 (≈ 27.7 mM) | – | – | COc1cc(N2CCC(N3CCN(C)CC3)CC2)ccc1Nc1ncnc(Nc2ccccc2S(=O)(=O)C(C)C)n1 [A03-type crystal, N-{2-methoxy-4-[4-(4-methylpiperazin-1-yl)piperidin-1-yl]phenyl}-N′-[2-(propane-2-sulfonyl)phenyl]-1,3,5-triazine-2,4-diamine] | –
4.5 (≈ 7.75 mM) | 8.0 (≈ 13.8 mM) | 13.0 (≈ 22.4 mM) | 2201.7 | 8.43×10^8 m/kg | COc1cc(N2CCC(N3CCN(C)CC3)CC2)ccc1Nc1ncnc(Nc2ccccc2S(=O)(=O)C(C)C)n1 [A04-type crystal, N-{2-methoxy-4-[4-(4-methylpiperazin-1-yl)piperidin-1-yl]phenyl}-N′-[2-(propane-2-sulfonyl)phenyl]-1,3,5-triazine-2,4-diamine] | change in the crystal form or the purity after storage ([3]; 25° C./uncontrolled humidity/D65 lamp (1000 lux) illumination, 2 months): no significant change; change in the crystal form or the purity after storage ([3]; 40° C./75% R.H., 3 months): no significant change; change in the crystal form or the purity after storage ([3]; 60° C./uncontrolled humidity, 3 months): no significant change; change in mass (hygroscopicity) (Hygroscopicity Test A): no significant change in mass; weight change through water absorption and dehydration [4]: lower than 0.1%; thermodynamic stability level among crystal forms of Compound A [5]: most stable crystal
– | – | – | – | – | COc1cc(N2CCC(N3CCN(C)CC3)CC2)ccc1Nc1ncnc(Nc2ccccc2S(=O)(=O)C(C)C)n1 [A05-type crystal, N-{2-methoxy-4-[4-(4-methylpiperazin-1-yl)piperidin-1-yl]phenyl}-N′-[2-(propane-2-sulfonyl)phenyl]-1,3,5-triazine-2,4-diamine] | solvent-mediated transformation [6]: transformed to A04-type crystal after 1 minute of agitation
– | – | – | – | – | COc1cc(N2CCC(N3CCN(C)CC3)CC2)ccc1Nc1ncnc(Nc2ccccc2S(=O)(=O)C(C)C)n1 [Compound A, N-{2-methoxy-4-[4-(4-methylpiperazin-1-yl)piperidin-1-yl]phenyl}-N′-[2-(propane-2-sulfonyl)phenyl]-1,3,5-triazine-2,4-diamine] | inhibitory activity against the kinase activity of EML4-ALK fusion protein (EML4-ALK fusion protein): good inhibitory activity; inhibitory activity against the kinase activity of mutant EGFR protein (mutant EGFR protein): good inhibitory activity
